Experiment [1] relates to C57BL/6J mice. Put plainly: Body temperature change in mice. The experiment is classed as in vivo, mouse. Particulars: for Body Temp Δ (°C) Mean: post 30 min session. The method, then:
All mice were injected s.c. with temperature transponders (14 × 2 mm, model IPTT-300, Avidity Science, Waterford Wisconsin, USA) under brief isoflurane immobilization, and were given at least 1 week to recover (Glatfelter et al. [2022b]). Mice were single housed post-implant, and for the duration of the experiments, to protect their devices from being removed by cage mates. Temperature was measured noninvasively using a handheld reader which is sensitive to the transponder signals.
At 1–2 weeks prior to the beginning of experiments, mice were habituated to handling and receiving s.c. saline injections. On the day of an experiment, mice were acclimated to the testing room in their home cage for at least 30 min prior to the start of sessions. Prior to each session, mice were weighed, and resting body temperatures were recorded. Mice were then placed into experimental chambers for acclimation. Behavioral testing was carried out in TruScan mouse locomotor arenas equipped with photobeam arrays (Coulbourn Instruments, Holliston, MA, USA) that were modified with cylindrical inserts and transparent flooring to aid in semi-automated HTR detection as previously described (Glatfelter et al. [2022a]). After 5 min of acclimation, basal body temperature was recorded followed by s.c. injection of drug or vehicle, and mice were returned to test chambers for 30 min. Dose ranges for each drug were 0.03–10 mg/kg for DOI, 0.03–10 mg/kg for psilocybin, and 0.003–1 mg/kg for LSD. Mice were randomly assigned to specific doses at the beginning of the experiment and received different doses at each session.
During each session, locomotor activity was quantified via photobeam tracking of distance traveled in cm. Overhead GoPro Hero Black 7 video recordings (120 fps, 960p resolution) were analyzed using a commercially available software package from Clever Sys Inc. (Reston, VA, USA) for the measurement of HTR activity. Mouse body temperature was also collected post-session to calculate temperature change values (basal - post session temperature reading).
Concentration-response data were fit to a single site non-linear regression model. For the HTR studies, potencies were determined from the ascending limb of the dose-response curves using ED50 potency values from [agonist] vs. response (variable slope, four parameter) least squares fit non-linear regression analyses, whereas efficacy was defined by the top output parameter or Emax from the aforementioned analyses. […] Best-fit values for ED50 and Emax from non-linear regression analyses were compared by extra sum-of-squares F tests. Mean effects for each behavioral endpoint were compared using two-way ANOVA (dose x sex), followed by Sidak’s multiple comparisons post-hoc test. Mean effects for pooled mouse behavioral data were compared via Welch’s ANOVA with Dunnett’s T3 post-hoc test, comparing all doses to saline vehicle controls (0 mg/kg). Alpha was set to 0.05 for all analyses.

For experiment [2], the system named is C57BL/6J mice. The conditions noted are these: range over Table 1 and an earlier study; ref Glatfelter et al. ([2024b]); cited from earlier work.

In the case of `COc1cc(CC(C)N)c(OC)cc1I` (stereo not drawn) [DOI, 2,5-dimethoxy-4-iodoamphetamine], the “Body Temp Δ (°C) Mean” value in experiment [1] (0.03 mg/kg s.c., female mice) is 0.0 °C; in experiment [1] (0.03 mg/kg s.c., male mice) it was 0.2 °C; in experiment [1] (0.03 mg/kg s.c., pooled sexes), 0.1 °C; in experiment [1] (0.1 mg/kg s.c., female mice) it was 0.2 °C; in experiment [1] (0.1 mg/kg s.c., male mice), 0.3 °C; in experiment [1] (0.1 mg/kg s.c., pooled sexes), -0.1 °C. Further, the “Body Temp Δ (°C) Mean” value in experiment [1] (0.3 mg/kg s.c., female mice) is 0.2 °C; in experiment [1] (0.3 mg/kg s.c., male mice), 0.6 °C; in experiment [1] (0.3 mg/kg s.c., pooled sexes), 0.2 °C; in experiment [1] (1 mg/kg s.c., female mice), -0.3 °C; in experiment [1] (1 mg/kg s.c., male mice), -0.1 °C; in experiment [1] (1 mg/kg s.c., pooled sexes) it was 0.4 °C. For the same compound, the “Body Temp Δ (°C) Mean” value was -0.3 °C in experiment [1] (3 mg/kg s.c., female mice); -0.1 °C in experiment [1] (3 mg/kg s.c., male mice); -0.2 °C in experiment [1] (3 mg/kg s.c., pooled sexes); -0.4 °C in experiment [1] (10 mg/kg s.c., female mice); -0.9 °C in experiment [1] (10 mg/kg s.c., male mice); -0.6 °C in experiment [1] (10 mg/kg s.c., pooled sexes). In experiment [1] (0.03-10 mg/kg s.c., both sexes), the “Body temperature vs. vehicle controls” value is reported as “did not change body temperature”.
As to `CCN(CC)C(=O)[C@@H]1C=C2c3cccc4[nH]cc(c34)C[C@H]2N(C)C1` [LSD, lysergic acid diethylamide], the “Body Temp Δ (°C) Mean” value in experiment [1] (0.003 mg/kg s.c., female mice) was -0.1 °C; in experiment [1] (0.003 mg/kg s.c., male mice), -0.1 °C; in experiment [1] (0.003 mg/kg s.c., pooled sexes) it was -0.1 °C; in experiment [1] (0.01 mg/kg s.c., female mice) it was -0.1 °C; in experiment [1] (0.01 mg/kg s.c., male mice) it was 0.3 °C; in experiment [1] (0.01 mg/kg s.c., pooled sexes), 0.1 °C. The “Body Temp Δ (°C) Mean” value is -0.1 °C in experiment [1] (0.03 mg/kg s.c., female mice); 0.0 °C in experiment [1] (0.03 mg/kg s.c., male mice); -0.1 °C in experiment [1] (0.03 mg/kg s.c., pooled sexes); -0.3 °C in experiment [1] (0.1 mg/kg s.c., female mice); -0.1 °C in experiment [1] (0.1 mg/kg s.c., male mice); -0.2 °C in experiment [1] (0.1 mg/kg s.c., pooled sexes). The “Body Temp Δ (°C) Mean” value in experiment [1] (0.3 mg/kg s.c., female mice) is -0.4 °C; in experiment [1] (0.3 mg/kg s.c., male mice) it was -0.1 °C; in experiment [1] (0.3 mg/kg s.c., pooled sexes), -0.2 °C; in experiment [1] (1 mg/kg s.c., female mice) it was -0.9 °C; in experiment [1] (1 mg/kg s.c., male mice) it was -1.5 °C; in experiment [1] (1 mg/kg s.c., pooled sexes), -1.2 °C. For the same compound, in experiment [1] (1 mg/kg s.c.), the “Body temperature effect at highest dose” value is given as “mild hypothermia”. In addition, in experiment [2], the “s.c. ED50 doses for inducing HTR in mice” value was 0.035 to 0.039 mg/kg.
